From US8552202B2, “Furo[3, 2-B] pyrrol-3-ones as cathespin S inhibitors” (Amura Therapeutics Limited, priority 2008, dated 2013) come the findings set out here.

Bounds are passed on as bounds.

Holding throughout (format): biochemical
For one test, the target named is Human liver cathepsin L (Homo sapiens (Human), UniProt P07711). Description: In vitro cathepsin Ki inhibition measurements, cathepsin L. Particulars: read-out: In vitro Ki (nM) vs Cath L. The procedure: (§1) Stock solutions of substrate or inhibitor were made up to 10 mM in 100% dimethylsulfoxide (DMSO) (Rathburns, Glasgow, U.K.) and diluted as appropriately required. In all cases the DMSO concentration in the assays was maintained at less than 1% (vol./vol.). The equilibrium inhibition constants (Ki^ss) for each compound were measured under steady-state conditions monitoring enzyme activity as a function of inhibitor concentration. The values were calculated on the assumption of pure competitive behaviour (Cornish-Bowden, A. Fundamentals of enzyme kinetics Portland Press; 1995, 93-128.).
Sequence of Human liver cathepsin L (P07711 114-333): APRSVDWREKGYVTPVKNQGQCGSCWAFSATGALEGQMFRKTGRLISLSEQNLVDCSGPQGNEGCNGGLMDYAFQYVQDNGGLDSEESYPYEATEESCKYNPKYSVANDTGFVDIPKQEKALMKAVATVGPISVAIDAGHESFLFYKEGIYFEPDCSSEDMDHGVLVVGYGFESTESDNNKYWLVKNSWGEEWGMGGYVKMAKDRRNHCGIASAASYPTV
Human liver cathepsin L (0.25 nM final, Athens Research and Technology, GA, USA) was routinely assayed in 10 mM bis-tris propane; pH 6.5 containing 1 mM EDTA, 5 mM 2-mercaptoethanol, 1 mM CaCl2 and 4 μM Ac-Phe-Arg-AMC ([S]=KM) (Bachem).
(§2) The apparent inhibition constant (Ki) for each compound was determined on the basis that inhibition was reversible and occurred by a pure-competitive mechanism. The Ki values were calculated, from the dependence of enzyme activity as a function of inhibitor concentration, by direct regression analysis (Prism v 3.02) using Equation 2 (Cornish-Bowden, A., 1995.).
(§3) In situations where the apparent dissociation constant (Ki^app) approached the enzyme concentrations, the Ki^app values were calculated using a quadratic solution in the form described by Equation 3 (Morrison, J. F. Trends Biochem. Sci., 7, 102-105, 1982; Morrison, J. F. Biochim. Biophys. Acta. 185, 269-286, 1969: Stone, S. R. and Hofsteenge, J. Biochemistry, 25, 4622-4628, 1986).
(§4) Curves were fitted by non-linear regression analysis (Prism) using a fixed value for the enzyme concentration. Equation 4 was used to account for the substrate kinetics, where ‘Ki’ is the inhibition constant, ‘[So]’ is the initial substrate concentration and ‘KM^app’ is the apparent macroscopic binding (Michaelis) constant for the substrate (Morrison, 1982).

Test [1] has as its target Human recombinant cathepsin V (Homo sapiens (Human), UniProt O60911). Description: In vitro cathepsin Ki inhibition measurements, cathepsin V. Particulars: read-out: In vitro Ki (nM) vs Cath V. The procedure:
as §1
Human recombinant cathepsin V (0.25 nM final, Merck Biosciences) was routinely assayed in 100 mM sodium acetate; pH 5.5 containing 10 mM L-cysteine, 0.001% (vol./vol.) zwittergent 3-12 (Merck Biosciences) and 5 μM Z-Leu-Arg-AMC (KM=0.5 μM) (Amura).
as §2, §3, §4

In the next test the target is Human liver cathepsin B (Homo sapiens (Human), UniProt P07858). The test can be described thus: In vitro cathepsin Ki inhibition measurements, cathepsin B. Particulars: read-out: In vitro Ki (nM) vs Cath B. The protocol: as §1
Human liver cathepsin B (0.25 nM final; Merck Biosciences), was routinely assayed in 10 mM bis-tris propane; pH 6.5 containing 1 mM EDTA, 5 mM 2-mercaptoethanol, 1 mM CaCl2 and 60 μM Z-Phe-Arg-AMC ([S]=KM) (Bachem, Weil am Rhein, Germany).
as §2, §3
as §4, with “In Equation 3 ‘vi’ is the observed residual activity, ‘F’ is the difference between the maximum activity (i.e. in the absence of inhibitor) and minimum enzyme activity, ‘Eo’ is the total enzyme concentration, ‘Ki^app’ is the apparent dissociation constant and ‘Io’ is the inhibitor concentration. Curves” for “Curves”

Test [2] concerns the target Human recombinant cathepsin S (Homo sapiens (Human), UniProt P25774). Description: In vitro cathepsin Ki inhibition measurements, cathepsin S. Particulars: for Ki: read-out: In vitro Ki (nM) vs Cath S; for selectivity against other mammalian cathepsins (in words): cathepsin S over other mammalian cathepsins. The procedure:
as §1, §2, §3, §4

For test [3], the target named is Human recombinant cathepsin K (Homo sapiens (Human), UniProt P43235). Description: In vitro cathepsin Ki inhibition measurements, cathepsin K. Particulars: read-out: In vitro Ki (nM) vs Cath K. The protocol:
as §1
Human recombinant cathepsin K (0.25 nM final; B. Turk, Josef, Stefan Institute, Ljubljana, Slovenia), was routinely assayed in 100 mM sodium acetate; pH 5.5 containing 1 mM EDTA, 10 mM L-cysteine and 1.8 μM Z-Leu-Arg-AMC ([S]=KM).
as §2, §3, §4

Sequence of Human recombinant cathepsin V (O60911 114-334): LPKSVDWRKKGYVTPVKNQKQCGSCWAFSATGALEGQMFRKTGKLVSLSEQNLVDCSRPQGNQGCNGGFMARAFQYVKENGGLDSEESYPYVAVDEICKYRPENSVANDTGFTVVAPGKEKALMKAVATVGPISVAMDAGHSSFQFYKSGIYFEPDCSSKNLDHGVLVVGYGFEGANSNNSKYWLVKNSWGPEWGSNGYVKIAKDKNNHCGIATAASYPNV
Sequence of Human recombinant cathepsin S (P25774 115-331): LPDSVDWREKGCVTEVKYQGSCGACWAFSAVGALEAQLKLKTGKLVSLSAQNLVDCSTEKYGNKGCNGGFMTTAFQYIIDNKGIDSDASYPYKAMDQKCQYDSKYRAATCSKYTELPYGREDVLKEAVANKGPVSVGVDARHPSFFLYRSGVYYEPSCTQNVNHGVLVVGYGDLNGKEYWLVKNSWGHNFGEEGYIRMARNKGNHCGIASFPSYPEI
Sequence of Human recombinant cathepsin K (P43235 115-329): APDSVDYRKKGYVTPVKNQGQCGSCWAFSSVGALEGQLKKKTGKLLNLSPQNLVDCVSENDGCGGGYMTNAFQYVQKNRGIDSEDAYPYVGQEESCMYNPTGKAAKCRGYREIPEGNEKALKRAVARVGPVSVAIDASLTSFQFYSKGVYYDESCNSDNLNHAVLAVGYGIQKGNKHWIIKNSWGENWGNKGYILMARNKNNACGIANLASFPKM

One may read the Ki as a measure of affinity in units of concentration, obtained from inhibition or displacement. On to `C[C@H]1CC[C@H]([C@H](NC(=O)c2cccc(-n3ccnc3)c2)C(=O)N2C[C@H](Cl)[C@H]3OCC(=O)[C@H]32)CC1`, for which the Ki was 4500 nM at Human liver cathepsin L; 3200 nM in test [1]; 4000 nM on Human liver cathepsin B; 0.4 nM in test [2]; over 3000 nM in test [3].
As for `O=C(N[C@H](C(=O)N1CC[C@H]2OCC(=O)[C@H]21)C1CCCCC1)c1ccccc1` [Compound 1], the Ki was 1250 nM at Human liver cathepsin L, 1900 nM in test [1] and over 10000 nM at Human liver cathepsin B.
Regarding `O=C(N[C@H](C(=O)N1C[C@H](F)[C@H]2OCC(=O)[C@H]21)C1CCCCC1)c1ccccc1` [Compound 2], the Ki on Human liver cathepsin L was 580 nM; in test [1], 700 nM; on Human liver cathepsin B it was over 7000 nM. The “selectivity verses cathepsin K (in words)” value in test [2] (cathepsin S over cathepsin K) is “little selectivity”. The “improvement in in vitro potency against human cathepsin S” value (“improvement in in vitro potency” for short) in test [2] (relative to Compound 1) amounted to 3.8 fold.
In the case of `O=C(N[C@H](C(=O)N1C[C@H](Cl)[C@H]2OCC(=O)[C@H]21)C1CCCCC1)c1ccccc1` [Compound 3], the Ki came to 100 nM at Human liver cathepsin L, 100 nM in test [1] and 780 nM at Human liver cathepsin B. Also, the “selectivity verses cathepsin K” value in test [2] (cathepsin S over cathepsin K) worked out at 4 fold. The “improvement in in vitro potency” value in test [2] (relative to Compound 1) came out at 27 fold.
As for `CC1CCC([C@H](NC(=O)c2ccccc2)C(=O)N2CC[C@H]3OCC(=O)[C@H]32)CC1` (stereo partly drawn) [Compound 4], the inhibition constant Ki was over 10000 nM on Human liver cathepsin L; over 10000 nM in test [1]; over 10000 nM on Human liver cathepsin B; 72 nM in test [2]; over 4800 nM in test [3]. The “selectivity verses cathepsin K” value in test [2] (cathepsin S over cathepsin K) is given as over 65 fold. For the same compound, the “improvement in in vitro potency” value in test [2] (relative to Compound 1) is on record as 3 fold.
`C[C@H]1CC[C@H]([C@H](NC(=O)c2ccccc2)C(=O)N2C[C@H](F)[C@H]3OCC(=O)[C@H]32)CC1` [Compound 5]: the Ki at Human liver cathepsin L is over 10000 nM; in test [1], over 10000 nM; at Human liver cathepsin B, over 10000 nM; in test [2], 28 nM; in test [3], over 10000 nM. Besides, the “selectivity against other mammalian cathepsins (in words)” value in test [2] is reported as “high selectivity”. Further, the “less potent verses cathepsin S” value in test [2] (relative to EXAMPLE 1) worked out at 5.6 fold.
Consider `C[C@H]1CC[C@H]([C@H](NC(=O)c2ccccc2)C(=O)N2C[C@@H](Cl)[C@H]3OCC(=O)[C@H]32)CC1` [Compound 6], for which the Ki on Human liver cathepsin L is over 10000 nM; in test [1] it was over 10000 nM; on Human liver cathepsin B it was over 10000 nM; in test [2], 75 nM; in test [3] it was over 10000 nM. The “selectivity against other mammalian cathepsins (in words)” value in test [2] is on record as “high selectivity”. Also, the “less potent verses cathepsin S” value in test [2] (relative to EXAMPLE 1) is reported as 15 fold.
`O=C(N[C@H](C(=O)N1CC[C@H]2OCC(=O)[C@H]21)C1CCCCC1)c1cccc(-n2cnnn2)c1` [Compound 7]: the inhibition constant Ki on Human liver cathepsin L is over 6500 nM; in test [1], 5000 nM; on Human liver cathepsin B it was over 10000 nM.
As to `O=C(N[C@H](C(=O)N1C[C@H](F)[C@H]2OCC(=O)[C@H]21)C1CCCCC1)c1cccc(-n2cnnn2)c1` [Compound 8], the Ki on Human liver cathepsin L is 4000 nM; in test [1], 2000 nM; on Human liver cathepsin B, 6000 nM. For the same compound, the “selectivity verses cathepsin K” value in test [2] (cathepsin S over cathepsin K) is 6.8 fold. Also, the “improvement in in vitro potency” value in test [2] (relative to Compound 7) was 3.4 fold.
In the same order, the values of `O=C(N[C@H](C(=O)N1C[C@H](Cl)[C@H]2OCC(=O)[C@H]21)C1CCCCC1)c1cccc(-n2cnnn2)c1` [Compound 9] are over 1200 nM, 240 nM, 650 nM, 7.5 fold and 47 fold.
`C[C@H]1CC[C@H]([C@H](NC(=O)c2cccc(-n3cnnn3)c2)C(=O)N2CC[C@H]3OCC(=O)[C@H]32)CC1` [Compound 10]: the Ki on Human liver cathepsin L was over 10000 nM; in test [1] it was over 10000 nM; at Human liver cathepsin B, over 10000 nM; in test [2], 79 nM; in test [3], over 10000 nM. Further, in test [2] (cathepsin S over cathepsin K), the “selectivity verses cathepsin K” value is on record as over 125 fold. Besides, in test [2] (relative to Compound 7), the “improvement in in vitro potency” value is on record as 2.2 fold.
As to `C[C@H]1CC[C@H]([C@H](NC(=O)c2cccc(-n3cnnn3)c2)C(=O)N2C[C@H](F)[C@H]3OCC(=O)[C@H]32)CC1` [Compound 11], the Ki at Human liver cathepsin L is over 10000 nM; in test [1] it was over 10000 nM; at Human liver cathepsin B, over 10000 nM; in test [2], 24 nM; in test [3], over 10000 nM. Moreover, the “selectivity against other mammalian cathepsins (in words)” value in test [2] is reported as “high selectivity”. Further, the “less potent verses cathepsin S” value in test [2] (relative to EXAMPLE 2) was determined as 11 fold.
`C[C@H]1CC[C@H]([C@H](NC(=O)c2cccc(-n3cnnn3)c2)C(=O)N2C[C@@H](Cl)[C@H]3OCC(=O)[C@H]32)CC1` [Compound 12]: the Ki at Human liver cathepsin L was over 10000 nM; in test [1] it was over 10000 nM; at Human liver cathepsin B, over 10000 nM; in test [2], 55 nM; in test [3] it was over 10000 nM. For the same compound, the “selectivity against other mammalian cathepsins (in words)” value in test [2] is given as “high selectivity”. Further, the “less potent verses cathepsin S” value in test [2] (relative to EXAMPLE 2) was found to be 25 fold.
Turning to `O=C(N[C@H](C(=O)N1C[C@H](Cl)[C@H]2OCC(=O)[C@H]21)C1CCCCC1)c1cccc(-n2ccnc2)c1` [Compound 13], the Ki on Human liver cathepsin L came out at 270 nM; in test [1] it was 170 nM; on Human liver cathepsin B it was 440 nM.
For `O=C(N[C@H](C(=O)N1C[C@@H](Cl)[C@H]2OCC(=O)[C@H]21)C1CCCCC1)c1cccc(-n2ccnc2)c1` [Compound 14], in that order: 1900 nM, 1800 nM and 5000 nM.
In the case of `C[C@H]1CC[C@H]([C@H](NC(=O)c2cccc(-n3ccnc3)c2)C(=O)N2C[C@H](F)[C@H]3OCC(=O)[C@H]32)CC1` [Compound 15], the Ki on Human liver cathepsin L was over 10000 nM; in test [1], over 10000 nM; on Human liver cathepsin B, over 10000 nM; in test [2] it was 15 nM; in test [3], over 10000 nM.
Regarding `C[C@H]1CC[C@H]([C@H](NC(=O)c2ccccc2)C(=O)N2C[C@H](Cl)[C@H]3OCC(=O)[C@H]32)CC1` [EXAMPLE 1, N—((S)-2-((3aS,6S,6aS)-6-chloro-3-oxodihydro-2H-furo[3,2-b]pyrrol-4(5H,6H,6aH)-yl)-1-((1r,4S)-4-methylcyclohexyl)-2-oxoethyl)benzamide], the Ki was 1400 nM at Human liver cathepsin L; over 10000 nM in test [1]; over 10000 nM on Human liver cathepsin B; 5 nM in test [2]; over 10000 nM in test [3]. The “selectivity against other mammalian cathepsins (in words)” value in test [2] is “high selectivity”. For the same compound, the “improvement in in vitro potency” value worked out at 45 fold in test [2] (relative to Compound 1) and 111 fold in test [2] (relative to prior art compound (38)).
On to `O=C(N[C@@H](CC1CCCCC1)C(=O)N1CC[C@H]2OCC(=O)[C@H]21)c1ccccc1` [compound (38), reference compound], for which the Ki on Human liver cathepsin L is 1700 nM; in test [1] it was 5700 nM; at Human liver cathepsin B, over 10000 nM; in test [3], over 4000 nM.
